Test results from patent publication US9115151B2, “Substituted 2,10-dihydro-9-oxa-1,2,4A-triazaphenanthren-3-ones and uses thereof” (AbbVie Inc., priority 2012, dated 2015).
Structures can show the parent of a compound that is named as a salt.

Legend:
[1] = target: T1, PKCα (Homo sapiens, UniProt P17252); test: In vitro enzyme assay (time-resolved fluorescence kinase assay), PKCα, 100 μM ATP; type: biochemical; conditions: 100 μM ATP; read-out: PKCα enzyme IC50
T1 construct: His6; purchased Millipore; host or cells: baculovirus in Sf21 cells
Procedure, shortened: (§1)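 Read-out was time-resolved fluorescence, corrected for a minus-enzyme blank and converted to percent activity relative to enzyme without drug. They were stopped with EDTA.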

[2] = test system: CD3/CD28 induced IL-2 in human T-Blasts; test: T-Blasts CD3/CD28 induced IL-2 assay; type: cell-based; conditions: read-out: CD3/CD28-stimulated IL2 in T-blasts EC50
Procedure, shortened: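 PHA-generated human T-blasts, 2×10^5 per well, preincubated 30 min with 8-point 1/3 compound dilutions in duplicate, then stimulated with anti-CD3+anti-CD28 (5 μg/mL final) for 24 h at 37° C. Supernatant IL-2 measured; MTT toxicity run on remaining cells.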

[3] = target: T2, PKCθ (Homo sapiens, UniProt Q04759); test: In vitro enzyme assay (time-resolved fluorescence kinase assay), PKCθ, 100 μM ATP; type: biochemical
T2 construct: His6; purchased Millipore; host or cells: baculovirus in Sf21 cells
T2 sequence (Q04759 whole entry): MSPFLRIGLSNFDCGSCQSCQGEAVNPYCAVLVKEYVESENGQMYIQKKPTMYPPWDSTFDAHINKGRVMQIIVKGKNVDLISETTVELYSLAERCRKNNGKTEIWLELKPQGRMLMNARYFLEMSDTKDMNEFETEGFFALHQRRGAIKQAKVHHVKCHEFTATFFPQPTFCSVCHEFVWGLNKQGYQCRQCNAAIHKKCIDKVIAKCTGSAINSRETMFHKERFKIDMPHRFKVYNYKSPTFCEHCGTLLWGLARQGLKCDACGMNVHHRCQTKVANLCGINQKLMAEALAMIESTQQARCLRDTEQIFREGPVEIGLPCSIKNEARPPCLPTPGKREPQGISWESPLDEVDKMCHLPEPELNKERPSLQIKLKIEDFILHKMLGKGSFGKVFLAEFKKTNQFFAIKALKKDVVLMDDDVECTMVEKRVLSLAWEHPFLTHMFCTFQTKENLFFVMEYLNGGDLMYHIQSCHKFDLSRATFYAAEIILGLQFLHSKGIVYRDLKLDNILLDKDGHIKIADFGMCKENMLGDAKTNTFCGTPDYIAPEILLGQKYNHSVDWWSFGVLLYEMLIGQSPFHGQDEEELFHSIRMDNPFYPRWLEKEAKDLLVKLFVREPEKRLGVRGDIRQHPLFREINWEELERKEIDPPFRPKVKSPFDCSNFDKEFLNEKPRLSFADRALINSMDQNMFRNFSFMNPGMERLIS
Procedure, shortened: as §1

SMILES: CC1C(=O)NN=C2COc3cc(Br)c(NC4CNC4)cc3N21 (stereo not drawn) [Example 85, 6-(Azetidin-3-ylamino)-7-bromo-4-methyl-2,10-dihydro-9-oxa-1,2,4a-triaza-phenanthren-3-one trifluoroacetic acid]
- IC50 [1]: 1000 to 10000 nM
- EC50 [2]: 250 to 1000 nM
- IC50 [3]: < 250 nM

SMILES: CC1C(=O)NN=C2COc3ccc(C4CCNC(Cc5ccccc5)C4)cc3N21 (stereo not drawn) [Example 86, 9-(2-Benzylpiperidin-4-yl)-1-methyl-3,5-dihydrobenzo[5,6][1,4]oxazino[3,4-c][1,2,4]triazin-2(1H)-one trifluoroacetic acid]
- IC50 [1]: 1000 to 10000 nM
- EC50 [2]: < 250 nM
- IC50 [3]: < 250 nM

SMILES: Cc1ccccc1-c1cc2c(cc1N(C)C1(C)CN(C)C1)N1C(=NNC(=O)C1C)CO2 (stereo not drawn) [Example 88]
- IC50 [1]: < 250 nM
- EC50 [2]: < 250 nM
- IC50 [3]: < 250 nM

SMILES: CC1C(=O)NN=C2COc3cc(-c4ccccc4)c(N(C)C4(C)CNC4)cc3N21 (stereo not drawn) [Example 90]
- IC50 [1]: < 250 nM
- EC50 [2]: < 250 nM
- IC50 [3]: < 250 nM

SMILES: CC(C)N1CC(C)(N(C)c2cc3c(cc2-c2ccccc2)OCC2=NNC(=O)C(C)N23)C1 (stereo not drawn) [Example 91]
- IC50 [1]: 250 to 1000 nM
- EC50 [2]: < 250 nM
- IC50 [3]: < 250 nM

SMILES: CC1C(=O)NN=C2COc3cc(-c4ccccc4)c(N(C)C4(C)CN(Cc5ccccc5)C4)cc3N21 (stereo not drawn) [Example 92]
- IC50 [1]: 250 to 1000 nM
- EC50 [2]: < 250 nM
- IC50 [3]: < 250 nM

SMILES: CCN1CC(C)(N(C)c2cc3c(cc2-c2ccccc2)OCC2=NNC(=O)C(C)N23)C1 (stereo not drawn) [Example 93]
- IC50 [1]: 1000 to 10000 nM
- EC50 [2]: 1000 to 10000 nM
- IC50 [3]: < 250 nM

SMILES: CC1C(=O)NN=C2COc3cc(-c4ccccc4)c(N(C)C4(C)CN(C5CCOCC5)C4)cc3N21 (stereo not drawn) [Example 94]
- IC50 [1]: 250 to 1000 nM
- EC50 [2]: < 250 nM
- IC50 [3]: < 250 nM

SMILES: CC1C(=O)NN=C2COc3cc(-c4ccccc4)c(N(C)C4(C)CN(CC5CCOCC5)C4)cc3N21 (stereo not drawn) [Example 95]
- IC50 [1]: 250 to 1000 nM
- EC50 [2]: < 250 nM
- IC50 [3]: < 250 nM

SMILES: CC1C(=O)NN=C2CSc3ccc(NC4CNC4)cc3N21 (stereo not drawn) [Example 97, 6-(Azetidin-3-ylamino)-4-methyl-2,10-dihydro-9-thia-1,2,4a-triaza-phenanthren-3-one hydrochloric acid salt]
- IC50 [1]: 1000 to 10000 nM
- EC50 [2]: < 250 nM
- IC50 [3]: < 250 nM

SMILES: CC1C(=O)NN=C2COc3cc(C(F)(F)F)c(CC4CNC4)cc3N21 (stereo not drawn) [Example 99, 6-Azetidin-3-ylmethyl-4-methyl-7-trifluoromethyl-2,10-dihydro-9-oxa-1,2,4a-triaza-phenanthren-3-one trifluoroacetic acid]
- IC50 [1]: 1000 to 10000 nM
- EC50 [2]: 250 to 1000 nM
- IC50 [3]: < 250 nM

SMILES: CC1C(=O)NN=C2COc3cc4ccn(C5CNC5)c4cc3N21 (stereo not drawn) [Example 103, 10-(Azetidin-3-yl)-1-methyl-5,10-dihydro-1H-[1,2,4]triazino[4′,3′:4,5][1,4]oxazino[2,3-f]indol-2(3H)-one trifluoroacetic acid]
- IC50 [1]: 1000 to 10000 nM
- EC50 [2]: 250 to 1000 nM
- IC50 [3]: < 250 nM

SMILES: CC1C(=O)NN=C2COc3cc(Oc4ccccc4)c(NC4CNC4)cc3N21 (stereo not drawn) [Example 106, 6-(Azetidin-3-ylamino)-4-methyl-7-phenoxy-2,10-dihydro-9-oxa-1,2,4a-triaza-phenanthren-3-one trifluoroacetic acid]
- IC50 [1]: 1000 to 10000 nM
- EC50 [2]: 250 to 1000 nM
- IC50 [3]: < 250 nM

SMILES: CC1C(=O)NN=C2COc3cc(C(F)(F)F)c(OC4(C)CNC4)cc3N21 (stereo not drawn) [Example 107, 4-Methyl-6-(3-methyl-azetidin-3-yloxy)-7-trifluoromethyl-2,10-dihydro-9-oxa-1,2,4a-triaza-phenanthren-3-one trifluoroacetic acid]
- IC50 [1]: < 250 nM
- EC50 [2]: < 250 nM
- IC50 [3]: < 250 nM

SMILES: CC1C(=O)NN=C2CCc3ccc(NC4CNC4)cc3N21 (stereo not drawn) [Example 108, 9-(Azetidin-3-ylamino)-1-methyl-5,6-dihydro-1H-[1,2,4]triazino[4,3-a]quinolin-2(3H)-one hydrochloric acid]
- IC50 [1]: 250 to 1000 nM
- EC50 [2]: < 250 nM
- IC50 [3]: < 250 nM

SMILES: C[C@H](c1ccc2c(c1)N1C(=NNC(=O)[C@H]1C)CO2)C1CNC1 [Example 110]
- IC50 [1]: 1000 to 10000 nM
- EC50 [2]: 250 to 1000 nM
- IC50 [3]: 250 to 1000 nM

SMILES: C[C@@H]1C(=O)NN=C2COc3ccc([C@H](C)C4CNC4)cc3N21 [Example 111]
- IC50 [1]: 1000 to 10000 nM
- EC50 [2]: 250 to 1000 nM
- IC50 [3]: < 250 nM

SMILES: CC1C(=O)NN=C2COc3cc(C(C)C(F)(F)F)c(NC4CNC4)cc3N21 (stereo not drawn) [Example 112, 9-(Azetidin-3-ylamino)-1-methyl-8-(1,1,1-trifluoropropan-2-yl)-3,5-dihydrobenzo[5,6][1,4]oxazino[3,4-c][1,2,4]triazin-2(1H)-one trifluoroacetic acid salt]
- IC50 [1]: 1000 to 10000 nM
- EC50 [2]: 1000 to 10000 nM
- IC50 [3]: 1000 to 10000 nM

SMILES: CC1C(=O)NN=C2COc3ccc(NC4(C(C)C)CNC4)cc3N21 (stereo not drawn) [Example 113, 9-((3-Isopropylazetidin-3-yl)amino)-1-methyl-3,5-dihydrobenzo[5,6][1,4]oxazino[3,4-c][1,2,4]triazin-2(1H)-one trifluoroacetic acid]
- IC50 [1]: 1000 to 10000 nM
- EC50 [2]: < 250 nM
- IC50 [3]: < 250 nM

SMILES: CC1C(=O)NN=C2COc3c(cc(NC4CNC4)c(F)c3F)N21 (stereo not drawn) [Example 114, 9-(Azetidin-3-ylamino)-7,8-difluoro-1-methyl-3,5-dihydrobenzo[5,6][1,4]oxazino[3,4-c][1,2,4]triazin-2(1H)-one trifluoroacetic acid]
- IC50 [1]: 1000 to 10000 nM
- EC50 [2]: < 250 nM
- IC50 [3]: < 250 nM

SMILES: Cc1cc2c(cc1N1CCC13CCNCC3)N1C(=NNC(=O)C1C)CO2 (stereo not drawn) [Example 115, 1,8-Dimethyl-9-(1,7-diazaspiro[3.5]nonan-1-yl)-3,5-dihydrobenzo[5,6][1,4]oxazino[3,4-c][1,2,4]triazin-2(1H)-one trifluoroacetic acid]
- IC50 [1]: 1000 to 10000 nM
- EC50 [2]: < 250 nM
- IC50 [3]: < 250 nM

SMILES: CC1C(=O)NN=C2COc3cc(C(F)(F)F)c(C4CCNC(Cc5ccccc5)C4)cc3N21 (stereo not drawn) [Example 116, 9-(2-Benzylpiperidin-4-yl)-1-methyl-8-(trifluoromethyl)-3,5-dihydrobenzo[5,6][1,4]oxazino[3,4-c][1,2,4]triazin-2(1H)-one trifluoroacetic acid]
- IC50 [1]: 1000 to 10000 nM
- EC50 [2]: 250 to 1000 nM
- IC50 [3]: < 250 nM

SMILES: CC1C(=O)NN=C2COc3ccc(N4CCCC4CN)cc3N21 (stereo not drawn) [Example 117, 6-(2-Aminomethyl-pyrrolidin-1-yl)-4-methyl-2,10-dihydro-9-oxa-1,2,4a-triaza-phenanthren-3-one trifluoroacetic acid]
- IC50 [1]: 1000 to 10000 nM
- EC50 [2]: 250 to 1000 nM
- IC50 [3]: < 250 nM

SMILES: CC1C(=O)NN=C2COc3cc(-c4ccccc4)c(C4CCNCC4)cc3N21 (stereo not drawn) [Example 119, 1-Methyl-8-phenyl-9-(piperidin-4-yl)-3,5-dihydrobenzo[5,6][1,4]oxazino[3,4-c][1,2,4]triazin-2(1H)-one trifluoroacetic acid]
- IC50 [1]: 1000 to 10000 nM
- EC50 [2]: < 250 nM
- IC50 [3]: < 250 nM

SMILES: CC1C(=O)NN=C2COc3cc(C(F)(F)F)c(C4CCNCC4)cc3N21 (stereo not drawn) [Example 120, 1-Methyl-9-(piperidin-4-yl)-8-(trifluoromethyl)-3,5-dihydrobenzo[5,6][1,4]oxazino[3,4-c][1,2,4]triazin-2(1H)-one trifluoroacetic acid]
- IC50 [1]: 1000 to 10000 nM
- EC50 [2]: 250 to 1000 nM
- IC50 [3]: < 250 nM
